Test results as given in PubChem BioAssay AID1918995 (Molecular Pharmacology Branch, DTP, NCI, 2023).

Test system: 324938-238-R-J1-PDC complex spheroid growth, % test/control
Assay: Anticancer human tumor 324938-238-R-J1-PDC patient-derived bladder carcinoma cell line growth inhibition [AhR]
Settings: for IC50: curve of first compound; for viability, T/C: stronger effect = lower value
Summary of the method: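 Spheroids combined tumor cells with HUVEC endothelial cells and human MSCs as stroma. AhR antagonists were paired with standard or investigational drugs, each dosed in half-log steps down from near clinical Cmax, or from 10 microM where Cmax was unknown.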

[1] = second compound 0.1 µM, first compound 0.0316 µM
[2] = second compound 0.1 µM, first compound 0.1 µM
[3] = second compound 0.1 µM, first compound 0.316 µM
[4] = second compound 0.1 µM, first compound 1 µM
[5] = second compound 0.1 µM, first compound 3.16 µM
[6] = second compound 0.1 µM, first compound 10 µM
[7] = second compound 0.316 µM, first compound 0.0316 µM
[8] = second compound 0.316 µM, first compound 0.1 µM
[9] = second compound 0.316 µM, first compound 0.316 µM
[10] = second compound 0.316 µM, first compound 1 µM
[11] = second compound 0.316 µM, first compound 3.16 µM
[12] = second compound 0.316 µM, first compound 10 µM
[13] = second compound 1 µM, first compound 0.0316 µM
[14] = second compound 1 µM, first compound 0.1 µM
[15] = second compound 1 µM, first compound 0.316 µM
[16] = second compound 1 µM, first compound 1 µM
[17] = second compound 1 µM, first compound 3.16 µM
[18] = second compound 1 µM, first compound 10 µM
[19] = second compound 3.16 µM, first compound 0.0316 µM
[20] = second compound 3.16 µM, first compound 0.1 µM
[21] = second compound 3.16 µM, first compound 0.316 µM
[22] = second compound 3.16 µM, first compound 1 µM
[23] = second compound 3.16 µM, first compound 3.16 µM
[24] = second compound 3.16 µM, first compound 10 µM
[25] = second compound 10 µM, first compound 0.0316 µM
[26] = second compound 10 µM, first compound 0.1 µM
[27] = second compound 10 µM, first compound 0.316 µM
[28] = second compound 10 µM, first compound 1 µM
[29] = second compound 10 µM, first compound 3.16 µM
[30] = second compound 10 µM, first compound 10 µM
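Further: spheroids exposed to agents for seven days before viability read.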

`Nc1ccccc1NC(=O)c1ccc(CNC(=O)OCc2cccnc2)cc1` + CC(CO)NC(=O)c1cc(-c2ccc(Cl)cc2)nn(-c2cnn(C)c2)c1=O was tested, and the IC50 (second compound 0.1 µM) was 3.83 µM, the IC50 (second compound 0.316 µM) was 2.54 µM and the IC50 (second compound 1 µM) was 3.99 µM. It also gave an IC50 (second compound 3.16 µM) of 3.25 µM, an IC50 (second compound 10 µM) of 2.71 µM and a viability, T/C [1] of 116%. It also gave a viability, T/C [2] of 122%, a viability, T/C [3] of 99.1% and a viability, T/C [4] of 66.3%. The viability, T/C [5] was 63.9%, the viability, T/C [6] was 26.3% and the viability, T/C [7] was 118%. The viability, T/C [8] was 112%, the viability, T/C [9] was 95.2% and the viability, T/C [10] was 61.4%. It also gave a viability, T/C [11] of 52.4%, a viability, T/C [12] of 26.7% and a viability, T/C [13] of 99.2%. For the same compound, the viability, T/C [14] was 109%, the viability, T/C [15] was 102% and the viability, T/C [16] was 69.5%. It also gave a viability, T/C [17] of 61.6%, a viability, T/C [18] of 25.7% and a viability, T/C [19] of 88%. For the same compound, the viability, T/C [20] was 90.8%, the viability, T/C [21] was 84.9% and the viability, T/C [22] was 63.9%. For the same compound, the viability, T/C [23] was 56.4%, the viability, T/C [24] was 7.19% and the viability, T/C [25] was 82.2%. For the same compound, the viability, T/C [26] was 90.8%, the viability, T/C [27] was 80.9% and the viability, T/C [28] was 63.9%. It also gave a viability, T/C [29] of 50% and a viability, T/C [30] of 1.83%.

With `O=C(c1cc(Cc2n[nH]c(=O)c3ccccc23)ccc1F)N1CCN(C(=O)C2CC2)CC1` + CC(CO)NC(=O)c1cc(-c2ccc(Cl)cc2)nn(-c2cnn(C)c2)c1=O the IC50 (second compound 0.1 µM) was 9.56 µM, the IC50 (second compound 0.316 µM) was > 10 µM and the IC50 (second compound 1 µM) was > 10 µM. It also gave an IC50 (second compound 3.16 µM) of 6.86 µM, an IC50 (second compound 10 µM) of 5.14 µM and a viability, T/C [1] of 97.6%. The viability, T/C [2] was 104%, the viability, T/C [3] was 85.3% and the viability, T/C [4] was 75.6%. It also gave a viability, T/C [5] of 66.9%, a viability, T/C [6] of 48.6% and a viability, T/C [7] of 83.3%. It also gave a viability, T/C [8] of 81%, a viability, T/C [9] of 79.2% and a viability, T/C [10] of 69.8%. The viability, T/C [11] was 65.3%, the viability, T/C [12] was 52% and the viability, T/C [13] was 82%. The viability, T/C [14] was 77.1%, the viability, T/C [15] was 75.1% and the viability, T/C [16] was 70.6%. The viability, T/C [17] was 65.7%, the viability, T/C [18] was 54% and the viability, T/C [19] was 65.8%. For the same compound, the viability, T/C [20] was 69.8%, the viability, T/C [21] was 73.7% and the viability, T/C [22] was 57.8%. It also gave a viability, T/C [23] of 53.9%, a viability, T/C [24] of 48.4% and a viability, T/C [25] of 58.8%. It also gave a viability, T/C [26] of 63.8%, a viability, T/C [27] of 55.5% and a viability, T/C [28] of 50.5%. It also gave a viability, T/C [29] of 54.1% and a viability, T/C [30] of 47.5%.
